Measured values from patent US11192893B2, “Pyrazoloquinazolinone antitumor agents” (The Rockefeller University, priority 2017, dated 2021).
Where two headings read alike, the source gives them in different places.

Key:
[1] = target: human cytoplasmic dynein 2 (Homo sapiens (Human), UniProt Q8NCM8); assay: microtubule gliding assay with GFP-dynein 2; assay type: biochemical; conditions: for Gliding velocity: dynein 2-driven microtubule gliding, test compounds at 20 pM (so in the source), 0.05 mg/mL casein, 2% DMSO, solvent control 126 ± 17; for Gliding velocity / IC50: 1 mM MgATP; for IC50: Table 1, dose-dependent analysis of dynein 2-driven microtubule gliding
Sequence of human cytoplasmic dynein 2 (Q8NCM8 1091-4307 limits assumed): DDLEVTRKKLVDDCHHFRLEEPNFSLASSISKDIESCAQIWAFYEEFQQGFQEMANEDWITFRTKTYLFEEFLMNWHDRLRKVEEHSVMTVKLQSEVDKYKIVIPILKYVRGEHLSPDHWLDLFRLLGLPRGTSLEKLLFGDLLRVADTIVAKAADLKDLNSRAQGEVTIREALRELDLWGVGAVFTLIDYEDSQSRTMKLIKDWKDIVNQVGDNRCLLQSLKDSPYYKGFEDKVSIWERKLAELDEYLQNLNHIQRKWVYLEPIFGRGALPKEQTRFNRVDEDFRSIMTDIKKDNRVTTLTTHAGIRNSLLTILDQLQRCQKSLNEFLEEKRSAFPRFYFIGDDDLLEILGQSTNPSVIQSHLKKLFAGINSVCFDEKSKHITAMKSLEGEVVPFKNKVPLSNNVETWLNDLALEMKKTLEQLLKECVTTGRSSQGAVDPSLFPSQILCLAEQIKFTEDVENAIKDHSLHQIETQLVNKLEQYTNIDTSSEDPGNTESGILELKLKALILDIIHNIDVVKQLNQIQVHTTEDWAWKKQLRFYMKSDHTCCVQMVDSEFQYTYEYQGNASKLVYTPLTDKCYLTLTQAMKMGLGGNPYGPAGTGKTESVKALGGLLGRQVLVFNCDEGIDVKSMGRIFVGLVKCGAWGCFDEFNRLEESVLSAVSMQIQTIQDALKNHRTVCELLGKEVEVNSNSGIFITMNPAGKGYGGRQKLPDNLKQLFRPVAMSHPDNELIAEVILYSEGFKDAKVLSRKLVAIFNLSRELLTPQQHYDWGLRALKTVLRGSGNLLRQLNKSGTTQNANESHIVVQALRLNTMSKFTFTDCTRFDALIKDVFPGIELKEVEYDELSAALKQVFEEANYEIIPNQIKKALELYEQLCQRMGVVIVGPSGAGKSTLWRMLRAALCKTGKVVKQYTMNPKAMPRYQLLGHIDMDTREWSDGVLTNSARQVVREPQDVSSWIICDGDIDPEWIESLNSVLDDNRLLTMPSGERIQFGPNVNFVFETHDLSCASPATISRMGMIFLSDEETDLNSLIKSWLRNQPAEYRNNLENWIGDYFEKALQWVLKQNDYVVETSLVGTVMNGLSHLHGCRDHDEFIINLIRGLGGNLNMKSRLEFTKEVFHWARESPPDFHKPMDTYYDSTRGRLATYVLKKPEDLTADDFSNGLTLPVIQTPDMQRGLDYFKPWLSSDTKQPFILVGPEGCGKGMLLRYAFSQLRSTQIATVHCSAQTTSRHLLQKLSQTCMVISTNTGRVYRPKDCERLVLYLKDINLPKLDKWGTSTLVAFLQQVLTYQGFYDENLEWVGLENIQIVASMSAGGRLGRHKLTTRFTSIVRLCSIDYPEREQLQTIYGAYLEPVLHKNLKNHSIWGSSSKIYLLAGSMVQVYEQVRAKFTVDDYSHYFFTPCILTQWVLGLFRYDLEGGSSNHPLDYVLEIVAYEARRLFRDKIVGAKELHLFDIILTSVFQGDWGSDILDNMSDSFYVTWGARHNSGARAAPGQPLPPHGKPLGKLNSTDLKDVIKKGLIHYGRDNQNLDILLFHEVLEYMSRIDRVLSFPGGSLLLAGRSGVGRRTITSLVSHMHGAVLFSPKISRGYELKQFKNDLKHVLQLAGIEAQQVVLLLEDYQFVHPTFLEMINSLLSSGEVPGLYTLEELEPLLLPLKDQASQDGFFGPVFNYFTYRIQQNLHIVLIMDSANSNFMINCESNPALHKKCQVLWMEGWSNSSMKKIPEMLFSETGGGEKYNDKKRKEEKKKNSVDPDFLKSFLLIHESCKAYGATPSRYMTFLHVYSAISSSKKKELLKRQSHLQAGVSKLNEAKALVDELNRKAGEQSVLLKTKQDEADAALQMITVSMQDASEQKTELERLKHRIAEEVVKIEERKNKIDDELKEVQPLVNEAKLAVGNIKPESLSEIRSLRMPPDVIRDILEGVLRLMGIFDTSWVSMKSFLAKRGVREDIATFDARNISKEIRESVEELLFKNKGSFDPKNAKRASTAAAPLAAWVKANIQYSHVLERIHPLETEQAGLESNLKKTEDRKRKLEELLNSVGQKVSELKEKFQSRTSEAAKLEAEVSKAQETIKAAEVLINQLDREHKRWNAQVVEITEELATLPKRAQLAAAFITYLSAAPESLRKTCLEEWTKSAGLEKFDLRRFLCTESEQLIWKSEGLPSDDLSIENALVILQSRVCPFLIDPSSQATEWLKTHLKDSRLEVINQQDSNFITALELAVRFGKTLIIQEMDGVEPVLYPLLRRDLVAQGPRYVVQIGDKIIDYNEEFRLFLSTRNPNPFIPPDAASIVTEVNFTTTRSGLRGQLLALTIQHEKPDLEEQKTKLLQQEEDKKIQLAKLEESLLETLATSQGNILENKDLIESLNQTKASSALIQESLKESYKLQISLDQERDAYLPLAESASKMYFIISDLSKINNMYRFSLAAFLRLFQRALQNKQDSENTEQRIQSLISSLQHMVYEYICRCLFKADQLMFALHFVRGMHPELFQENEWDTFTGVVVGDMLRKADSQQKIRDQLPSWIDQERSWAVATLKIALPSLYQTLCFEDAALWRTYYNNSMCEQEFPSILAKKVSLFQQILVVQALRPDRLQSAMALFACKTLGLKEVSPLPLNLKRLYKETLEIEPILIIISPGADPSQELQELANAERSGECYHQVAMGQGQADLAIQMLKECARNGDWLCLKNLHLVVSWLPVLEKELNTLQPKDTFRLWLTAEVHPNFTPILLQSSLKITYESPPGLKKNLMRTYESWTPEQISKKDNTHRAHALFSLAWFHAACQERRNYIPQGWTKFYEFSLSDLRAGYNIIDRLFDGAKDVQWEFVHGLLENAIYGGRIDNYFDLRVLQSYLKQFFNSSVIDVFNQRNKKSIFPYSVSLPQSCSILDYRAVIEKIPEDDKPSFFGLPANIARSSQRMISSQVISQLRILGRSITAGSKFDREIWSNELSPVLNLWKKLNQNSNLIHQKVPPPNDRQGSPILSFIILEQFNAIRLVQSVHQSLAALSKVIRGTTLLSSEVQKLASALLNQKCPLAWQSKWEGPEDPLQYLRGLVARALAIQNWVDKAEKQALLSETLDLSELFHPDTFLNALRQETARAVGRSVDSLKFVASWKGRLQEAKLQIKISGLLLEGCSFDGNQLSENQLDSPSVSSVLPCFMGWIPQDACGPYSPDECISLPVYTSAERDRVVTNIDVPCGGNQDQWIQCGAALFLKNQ
Experimental: Compounds were tested employing a microtubule gliding assay, a standard biochemical assay for motor proteins. […] We purified an N-terminally GFP-tagged motor-domain construct of dynein 2 using an insect cell expression system [Schmidt et al., Nature. 2015; 518(7539):435-8]. The GFP tag in this construct allowed immobilization on passivated glass coverslips used in microtubule gliding assays. GFP-dynein 2, in the presence of ATP (1 mM), moved microtubules with a velocity of 128±14 nm/s. The mean velocity of dynein 2-driven microtubule gliding in the presence of control solvent (2% DMSO) and test compounds at 20 pM were compared. All motility assays were run at 1 mM MgATP, 0.05 mg/mL casein, and 2% DMSO. Representative examples of compounds of the invention provided the results shown as “Gliding velocity in nm/s” in Table 1. For some compounds, dose-dependent analyses were performed, and the results are shown as “IC50 in μM” in Table 1.
Microtubule surface gliding assay. Cytoplasmic dynein was purified from bovine brains as described by Bingham et al. [Methods Enzymol. 298, 171 (1998)]. K560, a 560-amino acid N-terminal fragment of human conventional kinesin (kinesin-1) with a C-terminal His-tag, was expressed in bacteria and purifed as described by Woehlke et al., [Cell 90, 207 (1997)]. Motility assays were performed on a Zeiss Axiovert 200M wide-field microscope equipped with a Zeiss 100×/1.45 NA α-Plan-Fluar objective. Data were captured with an EM-CCD camera (iXon DU-897, Andor Technology) with a 0.3-second exposure time and frame rate of 0.5 second^−1. Microtubule gliding assays were performed as described by Kapoor and Mitchison [Proc. Natl. Acad. Sci. U.S.A 96, 9106 (1999)] with some modifications. An approximately 6-μL flow chamber was filled with motor protein (100 μg/mL dynein or 50 μg/mL K560) in motor dilution buffer (80 mM Pipes, 1 mM EGTA, 2 mM MgCl2, 2 mM DTT, 50 μM ATP, pH 6.8 with KOH). After a 2-minute incubation, excess protein was washed out with 20 μL of PEM80 buffer (80 mM Pipes, 1 mM EGTA, 2 mM MgCl2, pH 6.8 with KOH) and the surface was blocked against non-specific microtubule binding by filling the chamber with blocking protein (0.5 mg/mL α-casein for dynein experiments and 1 mg/mL BSA for K560 experiments) in motor dilution buffer. After 2 minutes the chamber was perfused with 18 μL of reaction mix (PEM80, 40 mM KC 1, blocking protein [1 mg/mL α-casein for dynein experiments; 1 mg/mL BSA for K560 experiments], 2 mM MgATP, 20 μM taxol, 0.1 μM rhodamine-labeled microtubules, oxygen depletion system [4 mM DTT, 2 mM glucose, 40 μg/mL glucose oxidase, 35 μg/mL catalase], 2.5% DMSO, and test compounds as appropriate). The flow chamber was then sealed with valap. After allowing the microtubules to bind to the surface for 5 minutes, the gliding microtubules were visualized by time-lapse fluorescence microscopy. Velocities were measured by kymography using Metamorph software (Molecular Devices), and the velocity for each microtubule was determined from the total distance during the time observed.
For washout experiments, the chamber was left unsealed after the initial reaction mix containing inhibitor was added. Microtubules were allowed to bind to the surface for 5 minutes, and then a time-lapse movie was acquired. The inhibitor was then washed out of the chamber by flowing in 20 μL of fresh reaction mix (PEM80, 40 mM KCl, 1 mg/mL α-casein, 2 mM MgATP, 20 μM taxol, oxygen depletion system, and 2.5% DMSO) without additional microtubules or inhibitor. The chamber was sealed, and additional time-lapse movies were acquired.

[2] = system: Hedgehog pathway activity; assay: Shh-Light luciferase reporter assay of Hedgehog pathway activity (Shh-Light2 cells, SAG-stimulated); assay type: cell-based; conditions: for activity at 20 µM: 20 μM compound, read-out: SHH-light % residual @ 20 μM; for activity at 2 µM: 2 μM compound, read-out: SHH-light % residual @ 2 μM
Experimental: To examine the inhibition of dynein 2 in cell-based assays, an established luciferase reporter-based cellular assay of Hedgehog pathway activity was employed [Taipale et al., Nature. 2000; 406(6799): 1005-9]. Signaling in this pathway depends on the function of dynein 2. In this setting, expression of luciferase driven by Hedgehog pathway activity was inhibited by compound 5 with an IC50 value of 0.9±0.5 μM. […] The potencies of these compounds in this cell-based assay match the rank-order of dynein 2 inhibition in vitro. In these assays, Hedgehog pathway activity was stimulated using the Synthetic Agonist of Smoothened (SAG). This compound competes with many Hedgehog pathway inhibitors for binding to Smoothened, a key node in the signaling pathway.
SHH-Light Assay (Steinman et al. eLife 2017; 6:e25174.)
NIH-3T3 cells stably expressing a luciferase reporter downstream of a Gli binding site (Shh-Light2 cells, RRID: CVCL_2721) were maintained in DMEM with 10% bovine calf serum (BCS). Cells were seeded at a density of 30,000 cells/well in 96-well tissue culture-treated plates (Corning, cat #353072) in 100 μL in DMEM+10% BCS, and incubated for 48 hr (Taipale et al., 2000). Wells were washed briefly with PBS. Next […] of low serum media (DMEM+0.5% BCS) containing smoothened agonist (SAG, 500 nM), and either solvent control (0.2% DMSO) or test compound (serial three-fold dilutions of each inhibitor starting from 20 μM) were added to the wells. After 28-32 hr of inhibitor treatment, cells were washed with 50 μL PBS and lysed for >30 min in 30 μL Passive Lysis Buffer (Promega Dual Luciferase kit, cat E1910). 5 uL of each lysate was transferred to white, solid-bottom 96-well plates (Greiner, cat #655075), followed by rapid addition (within 30 s) of 30 μL of Luciferase Assay Reagent using a multichannel pipette. Luminescence for each condition was read using a Synergy Neo plate reader (5 s integration time per well). Cell line identity was confirmed by measurement of the degree of response to Hedgehog pathway stimulation by the synthetic agonist SAG and using previously published values from our groups and others as references (Firestone et al., 2012; Hyman et al., 2009).

[3] = target: human dynein 1 (Homo sapiens (Human), UniProt Q14204); assay: microtubule gliding assay with GFP-dynein 1; assay type: biochemical; conditions: washout
Source text: To examine the inhibition of dynein 1 by compound 5 in vitro we generated recombinant human protein. We expressed and purified a GFP-tagged human dynein 1 (AA 1320-'16'16) construct similar to the one we used for GFP dynein 2. […] GFP-dynein 1 moves microtubules at 510±60 nm/s, a velocity expected based on studies of other mammalian dynein 1 homologs (n=7).
Microtubule surface gliding assay. Cytoplasmic dynein was purified from bovine brains as described by Bingham et al. [Methods Enzymol. 298, 171 (1998)]. K560, a 560-amino acid N-terminal fragment of human conventional kinesin (kinesin-1) with a C-terminal His-tag, was expressed in bacteria and purifed as described by Woehlke et al., [Cell 90, 207 (1997)]. Motility assays were performed on a Zeiss Axiovert 200M wide-field microscope equipped with a Zeiss 100×/1.45 NA α-Plan-Fluar objective. Data were captured with an EM-CCD camera (iXon DU-897, Andor Technology) with a 0.3-second exposure time and frame rate of 0.5 second^−1. […] After allowing the microtubules to bind to the surface for 5 minutes, the gliding microtubules were visualized by time-lapse fluorescence microscopy. Velocities were measured by kymography using Metamorph software (Molecular Devices), and the velocity for each microtubule was determined from the total distance during the time observed. […]

[4] = system: dynein 1 construct with a mutation in the AAA3 domain (Walker A residue); assay: ATPase activity of dynein 1 construct with AAA3 mutation; assay type: biochemical
Source text: ATPase activity at AAA1 is linked to individual steps of the motor, while the AAA3 site plays a regulatory role. Two lines of evidence indicate that compounds of the invention target the AAA1 site specifically. First, compound 5 inhibits the activity of a dynein 1 construct with a mutation in the AAA3 domain (Walker A residue). In this construct, the ATPase activity is expected to be mainly due to the AAA1 site. Second, the potency of inhibition of the AAA3 mutant is similar to that of the microtubule-stimulated ATPase rate. Sequence comparisons indicate that the AAA1 sites in dynein 1 and 2 are highly conserved, while the other AAA sites are less conserved. In fact, the residues within 4 Å of the bound nucleotide in AAA1 are identical between dynein 1 and 2.

[5] = system: basal cell carcinoma; conditions: 33 human patients; cited from earlier work
[6] = system: medulloblastoma; conditions: human patient; cited from earlier work
[7] = SAG 500 nM, read-out: IC50, luciferase expression driven by Hedgehog pathway activity
[8] = Table 2, SAG 500 nM, 28-32 hr treatment, read-out: Shh-light IC50

| SMILES | Gliding velocity [1] | IC50 [1] | IC50 [2, 8] | activity at 20 µM ([2]; SAG 500 nM) | activity at 2 µM ([2]; SAG 500 nM) | other results |
| --- | --- | --- | --- | --- | --- | --- |
| O=c1[nH]c2cc(-c3ccc(Cl)cc3Cl)nn2c2ccccc12 [Example 1, 2-(2,4-dichlorophenyl)-4H-pyrazolo[1,5-a]quinazolin-5-one] | 83 ± 10 nm/s | – | – | – | – | – |
| N#Cc1c(C2(c3ccc(Cl)cc3)CC2)nn2c1[nH]c(=O)c1cc(I)ccc12 [Example 5, 2-[1-(4-chlorophenyl)cyclopropyl]-7-iodo-5-oxo-4H-pyrazolo[1,5-a]quinazoline-3-carbonitrile] | 6 ± 2 nm/s | 2.6 ± 1.3 µM | 1.45 µM | -5.2% | 24.8% | IC50 [2, 7]: 0.9 ± 0.5 µM; reversibility of inhibition of dynein 1-dependent microtubule gliding [3]: reversed following washout; reversibility of inhibition of dynein 2-dependent motility ([1]; washout): reversed following washout; inhibition of ATPase activity of AAA3 mutant dynein 1 [4]: inhibits |
| O=c1c2ccccc2[nH]c2cc(-c3ccc(C(F)(F)F)cc3)nn12 [Example 71, 2-[4-(Trifluoromethyl)phenyl]-4H-pyrazolo[5,1-b]quinazolin-9-one] | – | – | – | 115% | 108% | – |
| CN(C)Cc1c(-c2ccc(Cl)cc2Cl)nn2c(=O)c3ccccc3[nH]c12 [Example 72, 2-(2,4-Dichlorophenyl)-3-[(dimethylamino)methyl]-4H-pyrazolo[5,1-b]quinazolin-9-one] | – | – | – | 20.1% | 122% | – |
| O=c1c2ccccc2[nH]c2c(I)c(-c3ccc(Cl)cc3Cl)nn12 [Example 73, 2-(2,4-Dichlorophenyl)-3-iodo-4H-pyrazolo[5,1-b]quinazolin-9-one] | – | – | – | 34.6% | 99.1% | – |
| CS(=O)(=O)c1ccc(C(=O)Nc2ccc(Cl)c(-c3ccccn3)c2)c(Cl)c1 [GDC-0449] | – | – | – | – | – | clinical response, basal cell carcinoma [5]: clinically significant response; clinical response, medulloblastoma [6]: regression of medulloblastoma |

Continued, in another order:

| Gliding velocity [1] | IC50 [1] | IC50 [2, 8] | SMILES | activity at 20 µM ([2]; SAG 500 nM) | activity at 2 µM ([2]; SAG 500 nM) | other results |
| --- | --- | --- | --- | --- | --- | --- |
| 83 ± 10 nm/s | – | – | N#Cc1c(-c2ccc(Cl)cc2Cl)nn2c1[nH]c(=O)c1ccccc12 [Example 2, 2-(2,4-dichlorophenyl)-5-oxo-4H-pyrazolo[1,5-a]quinazoline-3-carbonitrile] | 19.1% | – | IC50 [2, 7]: 5.2 ± 5 µM |
| 58 ± 14 nm/s | – | – | N#Cc1c(C2(c3ccc(Cl)cc3)CC2)nn2c1[nH]c(=O)c1ccccc12 [Example 3, 2-[1-(4-chlorophenyl)cyclopropyl]-5-oxo-4H-pyrazolo[1,5-a]quinazoline-3-carbonitrile] | – | – | – |
| 6 ± 2 nm/s | 3.3 ± 0.2 µM | – | N#Cc1c(C2(c3ccc(Cl)cc3)CC2)nn2c1[nH]c(=O)c1cc(C(F)(F)F)ccc12 [Example 4, 2-(1-(4-chlorophenyl)cyclopropyl)-5-oxo-7-(trifluoromethyl)-4,5-dihydropyrazolo[1,5-a]quinazoline-3-carbonitrile] | -4.4% | 41.8% | – |
| – | 0.29 µM | 0.29 µM | N#Cc1c(C2(c3ccc(Cl)cc3)CC2)nn2c(=O)c3cc(Br)ccc3[nH]c12 [Example 12, 7-Bromo-2-[1-(4-chlorophenyl)cyclopropyl]-9-oxo-4H-pyrazolo[5,1-b]quinazoline-3-carbonitrile] | -1.9% | -3.1% | – |
| – | 0.62 µM | 0.6 µM | N#Cc1c(C2CCC(c3ccc(Cl)cc3)CC2)nn2c(=O)c3ccccc3[nH]c12 (stereo not drawn) [Example 27, 2-[4-(4-Chlorophenyl)cyclohexyl]-9-oxo-4H-pyrazolo[5,1-b]quinazoline-3-carbonitrile] | -1.5% | 27.3% | – |
| – | 0.73 µM | 0.68 µM | N#Cc1c(CCCOc2ccc(Cl)cc2)nn2c(=O)c3ccccc3[nH]c12 [Example 29, 2-[3-(4-Chlorophenoxy)propyl]-9-oxo-4H-pyrazolo[5,1-b]quinazoline-3-carbonitrile] | 3.8% | 33.5% | – |
| – | 0.71 µM | 0.66 µM | N#Cc1c(C2(c3ccc(Cl)cc3)CC2)nn2c(=O)c3ccccc3[nH]c12 [Example 31, 2-[1-(4-Chlorophenyl)cyclopropyl]-9-oxo-4H-pyrazolo[5,1-b]quinazoline-3-carbonitrile] | -1.6% | 30.4% | – |
